This is an account of results in article PMC6874530, “Structural analysis identifies an escape route from the adverse lipogenic effects of liver X receptor ligands” (Communications Biology, 2019).

Test [1] deals with T1, LXRα/SRC1 (Homo sapiens, UniProt Q13133).
T1 construct: Human his-tagged LXRα LBD (200-447); His tag; made in house; host or cells: Escherichia coli BL21(DE3)
T1 sequence (Q13133 200-447): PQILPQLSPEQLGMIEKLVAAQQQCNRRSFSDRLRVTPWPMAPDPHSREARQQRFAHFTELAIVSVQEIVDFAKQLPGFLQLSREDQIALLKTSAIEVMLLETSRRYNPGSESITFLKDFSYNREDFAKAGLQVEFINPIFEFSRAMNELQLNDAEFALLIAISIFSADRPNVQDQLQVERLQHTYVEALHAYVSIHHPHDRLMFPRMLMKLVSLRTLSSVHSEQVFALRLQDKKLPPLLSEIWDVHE
T1 sequence (Q15788 with tags, fused parts or gaps partner limits assumed): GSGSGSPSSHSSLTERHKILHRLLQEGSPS
Put plainly: SPR cofactor recruitment, LXRα LBD binding to immobilized SRC1 coactivator peptide. The note with it: LXRα LBD 0.02–10 µM equilibrated with compound (50 μM). Here is the method:
(§1) The peptides carried an N-terminal biotin for surface immobilization on a Xantec NID200M Sensor Chip (NTA-derivatized carboxymethyldextran hydrogel, XanTec bioanalytics GmbH) preloaded with Ni^2+. […] LXRα and LXRβ LBD proteins were serially diluted in SPR running buffer (10 mM HEPES, 150 mM NaCl, and 0.05% Tween 20, pH 7.4) to a broad range of concentrations (0.02–10 µM) and equilibrated with tested compound (50 μM) prior to the sample injection over a modified biosensor surface. LXR-ligand complexes were injected in quick succession for 120 s over immobilized cofactor peptides and reference surfaces along with blank samples followed by 900 s of dissociation. The binding level at equilibrium was monitored for all samples, including the reference sample that contained DMSO at equal amount as tested compounds. All data were normalized to this reference sample in order to quantify the effects on peptide binding without bias by receptor instability. The surface was regenerated with 0.5% (w/v) SDS after each injection. Binding responses in the steady-state region of the sensorgrams were plotted against LXR LBD concentration to determine the overall equilibrium-binding affinity by fitting the data to nonlinear regression (Prism 8; GraphPad).

Test [2] has as its target T2, LXRβ LBD (Homo sapiens, UniProt P55055).
T2 sequence (P55055 215-460 limits assumed): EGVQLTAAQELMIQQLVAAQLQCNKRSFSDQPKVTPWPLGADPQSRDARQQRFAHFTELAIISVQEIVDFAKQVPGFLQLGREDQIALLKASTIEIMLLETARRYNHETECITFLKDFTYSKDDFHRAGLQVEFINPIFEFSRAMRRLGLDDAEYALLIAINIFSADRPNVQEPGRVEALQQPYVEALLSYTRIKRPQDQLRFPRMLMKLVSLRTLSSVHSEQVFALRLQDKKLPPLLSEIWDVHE
The conditions noted are these: LXRβ over LXRα binding.
Source text: The compounds were run in triplicate (binding assay) or in quadruplicate (transactivation assay). Standard deviations are indicated for individual experiments run more than once.

The subject of test [3] is ABCA1 mRNA. Kind of test: human whole blood assay, ABCA1 mRNA. The conditions noted are these: preliminary results, reply to reviewers. The format is cell-based.
The target of test [4] is T3, LXRβ/SRC1 (Homo sapiens, UniProt P55055).
T3 construct: human his-tagged LXRβ LBD (216-461); His tag; made in house; host or cells: Escherichia coli BL21(DE3)
T3 sequence (P55055 215-460 limits assumed): T2 sequence (P55055 215-460 limits assumed)
T3 sequence (Q15788 with tags, fused parts or gaps partner limits assumed): T1 sequence (Q15788 with tags, fused parts or gaps partner limits assumed)
Kind of test: SPR cofactor recruitment, LXRβ LBD binding to immobilized SRC1 coactivator peptide. The note with it: LXRβ LBD 0.02–10 µM equilibrated with compound (50 μM), immobilized SRC1 peptide; read-out: LXRβ/SRC1 Kd. How it is done: as §1

The target of test [5] is T4, LXRα/NCOR1 (Homo sapiens, UniProt Q13133).
T4 construct: Human his-tagged LXRα LBD (200-447); His tag; made in house; host or cells: Escherichia coli BL21(DE3)
T4 sequence (Q13133 200-447): T1 sequence (Q13133 200-447)
T4 sequence (O75376 with tags, fused parts or gaps partner limits assumed): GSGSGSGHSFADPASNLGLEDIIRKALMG
Kind of test: SPR cofactor recruitment, LXRα LBD binding to immobilized NCOR1 corepressor peptide. How it is done:
as §1

The target of test [6] is T5, LXRβ/NCOR1 (Homo sapiens, UniProt P55055).
T5 construct: human his-tagged LXRβ LBD (216-461); His tag; made in house; host or cells: Escherichia coli BL21(DE3)
T5 sequence (P55055 215-460 limits assumed): T2 sequence (P55055 215-460 limits assumed)
Kind of test: SPR cofactor recruitment, LXRβ LBD binding to immobilized NCOR1 corepressor peptide. How it is done:
as §1

`CC(C)N1C(=O)C(NC2CCN(c3ncc(CC(=O)O)cc3Cl)CC2)=C(c2ccccc2)S1(=O)=O` [AZ6]: the Kd in test [1] was found to be 1.5 µM.

As for `CC(C)(C)N1C(=O)C(Cc2ccccc2)=C(NC2CCN(c3ncc(CC(=O)O)cc3Cl)CC2)C1=O` [AZ7], the LXRβ binding selectivity entry in test [2] is “more than tenfold”.

For the molecule `CC(C)(O)c1cn(-c2ccc(-c3cc(F)c(CO)c(S(C)(=O)=O)c3)cc2F)c(C(C)(C)c2c(Cl)cccc2Cl)n1` [BMS-852927], the “ABCA1 mRNA levels in human whole blood assay” value in test [3] is listed as “induces ABCA1 mRNA levels, however with lower efficiency than full”. In test [4], the Kd was 19.8 µM. Moreover, the “effect on the LXRα/NCOR1 interaction” value in test [5] is “enhanced the interaction”. For the same molecule, the “effect on the LXRβ/NCOR1 interaction” value in test [6] was “enhanced the interaction”.
